Results taken from ChEMBL document CHEMBL1909046, “DrugMatrix in vitro pharmacology data”.

Columns and labels:
[1] = target: Mitogen-activated protein kinase 14 (Homo sapiens, UniProt Q16539); parameters: species or system Escherichia coli;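 also: inhibition of p38alpha enzyme activity in a biochemical kinase assay, with myelin basic protein serving as substrate; in other assays of this panel Not Active means under 50% inhibition at 10 µM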
[2] = DRUGMATRIX: Glutamate, NMDA, Phencyclidine radioligand binding (ligand: [3H] TCP); type: cell membranes, Rattus norvegicus, Wistar, Cerebral cortex, Membrane; conditions: Not Active = under 50% inhibition at 10 µM
[3] = DRUGMATRIX: Sigma2 radioligand binding (ligand: [3H] Ifenprodil); type: cell membranes, Rattus norvegicus, Wistar, Brain, Membrane; conditions: Not Active = under 50% inhibition at 10 µM
Vasopressin V1a receptor = Vasopressin V1a receptor (Homo sapiens, UniProt P37288); type: cell membranes, Membrane; conditions: hek293; also: in other assays of this panel Not Active means under 50% inhibition at 10 µM
Chain of Vasopressin V1a receptor (P37288 whole entry): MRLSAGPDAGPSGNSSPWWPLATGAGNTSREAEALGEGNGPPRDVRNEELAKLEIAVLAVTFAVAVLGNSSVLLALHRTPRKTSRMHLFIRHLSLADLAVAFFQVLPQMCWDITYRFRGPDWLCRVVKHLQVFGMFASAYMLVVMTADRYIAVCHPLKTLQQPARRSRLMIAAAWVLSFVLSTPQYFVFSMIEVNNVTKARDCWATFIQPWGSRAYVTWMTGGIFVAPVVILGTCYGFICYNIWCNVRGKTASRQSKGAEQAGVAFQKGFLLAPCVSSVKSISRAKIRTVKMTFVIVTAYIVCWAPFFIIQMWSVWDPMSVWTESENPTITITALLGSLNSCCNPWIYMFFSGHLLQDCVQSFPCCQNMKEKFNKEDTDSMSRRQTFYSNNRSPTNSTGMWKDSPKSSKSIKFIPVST

[4] = DRUGMATRIX: Sodium/nucleoside co-transporter radioligand binding (ligand: nitrobenzylthioinosine); type: cell membranes, Cavia porcellus, Dunkin-Hartley, Cerebral cortex, Membrane; conditions: Not Active = under 50% inhibition at 10 µM
[5] = DRUGMATRIX: Platelet-Derived Growth Factor (PDGF) radioligand binding (ligand: [125I] PDGF); type: cell-based; conditions: nih3t3; Not Active = under 50% inhibition at 10 µM
Substance-P receptor = Substance-P receptor (Homo sapiens, UniProt P25103); type: cell membranes, Membrane; conditions: cho; also: in other assays of this panel Not Active means under 50% inhibition at 10 µM
Chain of Substance-P receptor (P25103 whole entry): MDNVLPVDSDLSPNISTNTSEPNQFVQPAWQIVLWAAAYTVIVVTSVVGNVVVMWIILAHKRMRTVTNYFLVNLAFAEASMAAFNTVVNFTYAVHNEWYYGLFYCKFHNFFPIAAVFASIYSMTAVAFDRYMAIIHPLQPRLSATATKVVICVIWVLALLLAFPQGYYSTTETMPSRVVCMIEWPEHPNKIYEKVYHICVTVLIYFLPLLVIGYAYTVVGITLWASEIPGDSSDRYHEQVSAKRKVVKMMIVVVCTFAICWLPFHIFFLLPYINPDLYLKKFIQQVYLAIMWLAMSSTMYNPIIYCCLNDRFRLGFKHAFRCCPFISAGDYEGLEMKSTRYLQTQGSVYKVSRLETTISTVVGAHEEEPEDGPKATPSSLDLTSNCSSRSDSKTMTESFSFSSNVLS

Cytochrome P450 1A2 = target: T1, Cytochrome P450 1A2 (Homo sapiens, UniProt P05177); conditions: bti-tn-5b1-4; also: in other assays of this panel Not Active means under 50% inhibition at 10 µM
T1 sequence (P05177 whole entry): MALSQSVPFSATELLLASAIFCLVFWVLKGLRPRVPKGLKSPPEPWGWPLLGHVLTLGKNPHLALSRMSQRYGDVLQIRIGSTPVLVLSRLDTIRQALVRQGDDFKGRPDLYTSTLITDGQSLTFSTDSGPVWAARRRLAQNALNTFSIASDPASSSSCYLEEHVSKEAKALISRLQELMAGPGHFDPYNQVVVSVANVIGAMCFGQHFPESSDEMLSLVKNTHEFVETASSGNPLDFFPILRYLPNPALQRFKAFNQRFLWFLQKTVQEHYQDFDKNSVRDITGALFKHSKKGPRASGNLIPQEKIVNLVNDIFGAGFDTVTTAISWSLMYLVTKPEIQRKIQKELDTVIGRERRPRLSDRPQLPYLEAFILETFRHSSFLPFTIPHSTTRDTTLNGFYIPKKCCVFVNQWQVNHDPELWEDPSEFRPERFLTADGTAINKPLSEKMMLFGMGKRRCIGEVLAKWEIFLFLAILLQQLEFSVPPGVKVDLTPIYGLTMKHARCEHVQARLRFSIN

Chain of Mitogen-activated protein kinase 14 (Q16539 whole entry): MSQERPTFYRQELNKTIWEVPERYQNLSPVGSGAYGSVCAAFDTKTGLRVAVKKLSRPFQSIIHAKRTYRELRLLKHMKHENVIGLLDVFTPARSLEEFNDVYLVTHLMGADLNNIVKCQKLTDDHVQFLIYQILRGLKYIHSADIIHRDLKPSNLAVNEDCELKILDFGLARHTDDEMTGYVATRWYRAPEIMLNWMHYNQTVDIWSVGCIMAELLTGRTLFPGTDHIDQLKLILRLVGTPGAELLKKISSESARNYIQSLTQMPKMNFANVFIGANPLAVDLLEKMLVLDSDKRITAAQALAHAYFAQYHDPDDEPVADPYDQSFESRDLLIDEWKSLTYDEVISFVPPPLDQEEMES

| SMILES | IC50 [1] | IC50 [2] | Ki [2] | IC50 [3] | Ki [3] | IC50 (Vasopressin V1a receptor) | IC50 [4] | Ki [4] | IC50 [5] | Ki [5] | IC50 (Substance-P receptor) | IC50 (Cytochrome P450 1A2) | Ki (Cytochrome P450 1A2) | Ki (Substance-P receptor) | IC50 ([4]; read-out: IC50) [µM] | Ki ([4]; read-out: Ki) [µM] |
| --- | --- | --- | --- | --- | --- | --- | --- | --- | --- | --- | --- | --- | --- | --- | --- | --- |
| C[C@@H](O)[C@H]1C(=O)N2C(C(=O)O)=C(S[C@@H]3CN[C@H](C(=O)N(C)C)C3)[C@H](C)[C@H]12 [MEROPENEM] | Not Active | Not Active | Not Active | Not Active | Not Active | Not Active | Not Active | Not Active | Not Active | Not Active | Not Active | Not Active | Not Active | – | – | – |
| CC[C@@H](CO)NC(=O)[C@@H]1C=C2c3cccc4c3c(cn4C)C[C@H]2N(C)C1 [METHYSERGIDE] | Not Active | – | – | – | – | Not Active | – | – | – | – | Not Active | Not Active | Not Active | – | – | – |
| CCN(CC)CC#CCOC(=O)C(O)(c1ccccc1)C1CCCCC1 (configuration not stated) [OXYBUTYNIN] | Not Active | – | – | – | – | Not Active | – | – | – | – | – | Not Active | Not Active | Not Active | – | – |
| O=P(O)(O)C(O)(Cc1cccnc1)P(=O)(O)O [RISEDRONIC ACID] | Not Active | Not Active | Not Active | Not Active | Not Active | Not Active | Not Active | Not Active | Not Active | Not Active | Not Active | Not Active | Not Active | – | – | – |
| CN(CCOc1ccc(CC2SC(=O)NC2=O)cc1)c1ccccn1 (configuration not stated) [ROSIGLITAZONE] | Not Active | Not Active | Not Active | Not Active | Not Active | Not Active | Not Active | Not Active | Not Active | Not Active | Not Active | Not Active | Not Active | – | – | – |
| C=C(C)[C@H]1Cc2c(ccc3c2O[C@@H]2COc4cc(OC)c(OC)cc4[C@@H]2C3=O)O1 [ROTENONE] | Not Active | Not Active | Not Active | Not Active | Not Active | Not Active | Not Active | Not Active | Not Active | Not Active | Not Active | Not Active | Not Active | – | – | – |
| C#CCN(C)[C@H](C)Cc1ccccc1 [SELEGILINE] | Not Active | Not Active | Not Active | Not Active | Not Active | Not Active | Not Active | Not Active | Not Active | Not Active | Not Active | Not Active | Not Active | – | – | – |
| CO[C@H]1C[C@@H]2CC[C@@H](C)[C@@](O)(O2)C(=O)C(=O)N2CCCC[C@H]2C(=O)O[C@H]([C@H](C)C[C@@H]2CC[C@@H](O)[C@H](OC)C2)CC(=O)[C@H](C)/C=C(\C)[C@@H](O)[C@@H](OC)C(=O)[C@H](C)C[C@H](C)/C=C/C=C/C=C/1C [SIROLIMUS] | Not Active | Not Active | Not Active | Not Active | Not Active | Not Active | – | – | Not Active | Not Active | Not Active | Not Active | Not Active | – | 1.08 | 0.371 |
| CN[C@@H]1[C@H](O)[C@H](NC)[C@H]2O[C@@]3(O)C(=O)C[C@@H](C)O[C@H]3O[C@@H]2[C@H]1O [SPECTINOMYCIN] | Not Active | Not Active | Not Active | Not Active | Not Active | Not Active | Not Active | Not Active | Not Active | Not Active | Not Active | – | – | – | – | – |
| CCS(=O)(=O)CCn1c([N+](=O)[O-])cnc1C [TINIDAZOLE] | Not Active | Not Active | Not Active | Not Active | Not Active | Not Active | Not Active | Not Active | Not Active | Not Active | Not Active | – | – | – | – | – |
| NC[C@H]1O[C@H](O[C@H]2[C@H](O)[C@@H](O[C@H]3O[C@H](CO)[C@@H](O)[C@H](N)[C@H]3O)[C@H](N)C[C@@H]2N)[C@H](N)C[C@@H]1O [TOBRAMYCIN] | Not Active | Not Active | Not Active | Not Active | Not Active | Not Active | Not Active | Not Active | Not Active | Not Active | Not Active | – | – | – | – | – |
| O=c1n(CCCN2CCN(c3cccc(Cl)c3)CC2)nc2ccccn12 [TRAZODONE] | Not Active | – | – | – | – | Not Active | – | – | – | – | Not Active | Not Active | Not Active | – | – | – |
| COc1ccc(CN2CCNCC2)c(OC)c1OC [TRIMETAZIDINE] | Not Active | Not Active | Not Active | Not Active | Not Active | Not Active | Not Active | Not Active | Not Active | Not Active | Not Active | – | – | – | – | – |
